Like-named read-outs stand apart in the source and are kept apart here.
Legend:
[1] = system: CQ-resistant (Dd2) strain of P. falciparum; experiment: In vitro antiplasmodial activity, SYBR Green I fluorescence assay, Dd2 strain; assay type: cell-based, Plasmodium falciparum
Procedure: (§1) A set of 104 new styrylquinoline derivatives were synthesized and investigated for in vitro their antimalarial activity. To test antimalarial activities, different dilutions of compounds were added to P. falciparum culture. Following 72 h incubation at 37° C. in an atmosphere containing 5% CO2, the inhibitory property of the compounds were determined by SYBR Green I fluorescence assay. Meanwhile, SARs studies were conducted.
The SAR studies were focused on improving the in vitro activity of 2-arylvinylquinolines against the CQ-resistant Pf Dd2 strain.

HepG2 = experiment: Cytotoxicity assay using MTS in human hepatocytes; assay type: cell-based; conditions: for SI, selectivity index = [IC50 (HepG2)/IC50 (Dd2)]: HepG2 versus Dd2
[2] = Cytotoxicity assay using MTS in human hepatocytes; assay type: cell-based; conditions: human; Table 6B, unit inferred; footnote IC50 (HepG2); read-out: Cytotoxic activity HepG2 (converted)
[3] = system: β-hematin crystal formation; experiment: β-hematin inhibition experiment; assay type: biochemical; conditions: 100 μM hemin, 16 h at 37° C., up to 200 μM compound
Procedure: CQ and other aminoquinolines are known to fight against the malaria parasites by blocking hematin biocrystallization (hemozoin formation) through π-π stacking between the aminoquinoline scaffold and the heme. As a result, the accumulated toxic heme causes the parasite death by introducing oxidative membrane damage. β-hematin inhibition experiments were performed to determine possible mode of actions of arylvinylquinolines. FIG. 5A is an example according to various embodiments illustrating images of β-hematin crystals after incubation of 100 μM hemin, propionate buffer, phosphatidylcholine and, several concentrations of compound for 16 h at 37° C. […] In FIGS. 5A and 5B, the data are mean±SEM.

[4] = system: P. falciparum 3D7 strain (CQ-sensitive); experiment: In vitro antiplasmodium activity, 3D7 strain; assay type: cell-based, Plasmodium falciparum
Procedure: as §1

[5] = In vitro microsomal turnover assay (metabolic stability)
Procedure: Selectivity of compounds were determined by cytoxicity assay using MTS [(3-(4,5-dimethylthiazol-2-yl)-5-(3-carboxymethoxyphenyl)-2-(4-sulfophenyl)-2H-tetrazolium) in human hepatocytes. The metabolic stability of compounds was determined in mouse liver microsomes using an NADPH-regenerating system. The aqueous solubility at pH 7.4 was determined by UV-visible absorption based method. The permeability was assessed by the in vitro double-sink parallel artificial membrane permeability assay 52 that is a model for the passive transport from the gastrointestinal tract into the blood stream.
To assess the metabolic stability, the selected compounds were subjected to an in vitro microsomal turnover assay with mouse liver microsomal preparations. This assay determines the percentage of the parent compound residues after 60 min incubation (Table 7).

[6] = system: tightly synchronized Dd2 parasites; experiment: Developmental stage specific action (Giemsa microscopy and flow cytometry); assay type: cell-based, Plasmodium falciparum; conditions: 5×EC50, treated at 6, 18, 30 and 42 h post-invasion
Procedure: Accurate definition of the timing of action of antimalarial agents could give valuable insights into the developmental growth and clinical clearance of the parasite. To further understand the antimalarial activity of arylvinylquinolines, the developmental stage specific action of the most promising compound 24 was determined by both microscopy and flow cytometry analysis. Tightly synchronized cultures were exposed to 5×EC50 concentration of compound 24 at 6, 18, 30 and 42 hours post-invasion (HPI) of the merozoites. Microscopic analysis of Giemsa-stained-thin smears and flow cytometric evaluation were performed at 12 h intervals.
In FIGS. 2A and 2B, the results are representative of three independent biological replicates.

[7] = target: late stage (IV-V) gametocytes of 3D7 expressing luciferase parasite; experiment: In vitro gametocytocidal activity, late stage; assay type: cell-based, Plasmodium falciparum; conditions: late stage gametocytes, means and SEMs of three experiments
Excerpt: (§2) Late stage (IV-V) gametocytes are more refractory to antimalarial drugs than early-stage gametocytes and blood stage parasites, and thus fewer compounds are effective against late stage Pf gametocytes. […] FIGS. 4A and 4B are an examples according to various embodiments illustrating results showing the activity of compound 24 on gametocyte stages, based on an evaluation of the viability of gametocytes after the exposure of compound 24 on early (A) and late (B) gametocytes stages of 3D7 expressing luciferase parasite. In FIGS. 4A and 4B, EC50 data represent the means and SEMs of three experiments. Therefore, arylvinylquinolines represented good leads as new antimalarials with promising dual stage (blood and gametocyte) activity.

[8] = target: early stage (I-III) gametocytes of 3D7 expressing luciferase parasite; experiment: In vitro gametocytocidal activity, early stage; assay type: cell-based, Plasmodium falciparum
Excerpt: as §2

[9] = system: asynchronous Dd2 parasite cultures; experiment: Kill kinetic experiments (rate of killing, parasitocidal/parasitostatic); assay type: cell-based, Plasmodium falciparum; conditions: 5×EC50 (Atovaquone 6.6 nM) for 6, 12, 24 and 48 h
Procedure: To study whether arylvinylquinolines exerted their antiplasmodial activity through a parasitocidal or parasitostatic mechanism, kill kinetic experiments in Dd2 strain were performed. […] After washing to remove the inhibitors at these time points, the growth of the cultures was continued to be assessed for 96 h.
FIGS. 3A, 3B, 3C, and 3D are examples according to various embodiments illustrating rate of killing and parasitocidal/parasitostatic activity determination of arylvinylquinolines. […] After each exposure, cultures were washed three times in RPMI, resuspended in culture media, and monitored for parasite growth daily for 4 days. DHA and Atovaquone (50 nM and 6.6 nM) were included as fast and slow acting controls, respectively. Parasitemia was determined by microscopy of Giemsa stained smear.

[10] = CQ-resistant (Dd2) strain, 72 h incubation, read-out: EC50 (nmol)
[11] = Table 6A, unit not given (text gives nM), footnote calls it IC50, read-out: Antiplasmodium activity Dd2 (converted)
[12] = mouse liver microsomes, 60 min incubation
[13] = Table 6B, unit inferred, footnote IC50 (HepG2), read-out: Cytotoxic activity HepG2 (converted)
[14] = Table 6A, nM, footnote calls it IC50, read-out: Antiplasmodium activity 3D7 (converted)
[15] = Plasmodium falciparum, 3D7, read-out: Early stage IC50 (nM)

| Compound | RI, resistance index = [IC50 (Dd2)/IC50 (3D7)] [1] | SI, selectivity index = [IC50 (HepG2)/IC50 (Dd2)] (HepG2) | EC50 [1, 10] [nM] | EC50 [1, 11] [nM] | IC50 (HepG2) [nM] | Projected t1/2 [5] [min] | Clint ([5]; mouse, microsomes) [µL/min/mg] | % remaining after 60 min ([5]; mouse, microsomes, 1 h) [%] | EC50 [4, 14] [nM] | also measured |
| --- | --- | --- | --- | --- | --- | --- | --- | --- | --- | --- |
| CCN(CC)CCCC(C)Nc1ccnc2cc(Cl)ccc12 (centres unmarked) [CQ, Chloroquine, reference compound] | 9.8 | 60 | – | – | – | – | – | – | – | EC50 ([1]; Plasmodium falciparum, DD2, 72 h, CQ-resistant (Dd2) strain, 72 h incubation): 174 ± 15.5 nM; EC50 ([1]; Plasmodium falciparum, DD2, read-out: Antiplasmodium activity Dd2, Table 6A, unit not given (text gives nM), footnote calls it IC50): 174 ± 15.5 nM; IC50 [2]: 10400 ± 860 nM; inhibitory activity towards β-hematin formation [3]: potently inhibited; EC50 ([4]; Plasmodium falciparum, 3D7, Table 6A, nM, footnote calls it IC50, read-out: Antiplasmodium activity 3D7 (converted)): 17.8 ± 5.5 nM |
| CN(C)CCNc1cc(/C=C/c2ccccc2F)nc2ccc(Cl)cc12 [Compound 30] | – | 186 | 26 ± 0.9 | 26 | 4830 | – | – | – | – | EC50 ([1]; Dd2 strain, read-out: EC50): 26 ± 0.9 nM; RI, resistance index = [IC50 (Dd2)/IC50 (3D7)] ([1]; Dd2 versus 3D7): 0.5; EC50 ([4]; 3D7 strain, read-out: EC50): 55.9 ± 9.5 nM |
| CN(C)CCNc1cc(/C=C/c2cccc(F)c2)nc2ccc(Cl)cc12 [Compound 31] | – | 810 | 5.9 ± 1.4 | 5.9 | 4780 | 43.2 | 32.1 | 38.2 | – | RI, resistance index = [IC50 (Dd2)/IC50 (3D7)] ([1]; Dd2 versus 3D7): 0.3; EC50 ([4]; 3D7 strain, read-out: EC50): 23 ± 2.8 nM |
| CN(C)CCNc1cc(/C=C/c2ccncc2)nc2ccc(Cl)cc12 [Compound 50] | 0.6 0.6 0.5 0.3 0.5 | 212 | 28.8 ± 5 | 28.8 | – | – | – | – | – | Clint ([5]; mouse liver microsomes): 62.2 µL/min/mg; Projected t1/2 ([5]; mouse liver microsomes (MLM)): 22.3 min; % remaining after 60 min [5, 12]: 15.5%; EC50 ([1]; Dd2 strain, read-out: EC50): 28.8 ± 5 nM; IC50 (HepG2; [13]): 6110 nM; EC50 ([4]; read-out: Antiplasmodium activity 3D7 (converted)): 56.6 nM |
| Fc1ccc(/C=C/c2cc(NCc3ccccn3)c3cc(Cl)ccc3n2)cc1 [Compound 72] | 0.6 | 127 | 156 ± 34.5 | 156 ± 34.5 | 19800 ± 3270 | 65.3 | 21.2 | 52.9 | 248 ± 35.1 | EC50 ([1]; Dd2 strain, read-out: EC50): 156 ± 34.5 nM |
| Fc1ccc(/C=C/c2cc(NCCN3CCOCC3)c3cc(Cl)ccc3n2)cc1 [Compound 81] | 0.6 | 711 | 24.2 ± 0.8 | 24.2 ± 0.8 | 17200 ± 3300 | – | – | – | 41.8 ± 12.7 | – |
| CN1CCN(CCNc2cc(/C=C/c3ccc(F)cc3)nc3ccc(Cl)cc23)CC1 [Compound 86] | 1 | 209 | 15.3 ± 3.4 | 15.3 ± 3.4 | 3200 ± 491 | 60.3 | 23.0 | 50.2 | 15.7 ± 2.9 | stage-specific inhibition of P. falciparum growth [6]: stage-specific action at the trophozoite phase; IC50 [7]: 2500 ± 424 nM; IC50 ([8]; early stage gametocytes, means and SEMs of three experiments, read-out: Early stage IC50): 910 ± 314 nM; inhibitory activity towards β-hematin formation [3]: much weaker than that of CQ; rate of killing (parasitemia after exposure and wash-out) [9]: remarkable reduction in parasitemias |
| Fc1ccc(/C=C/c2cc(NCCCCN3CCOCC3)c3cc(Cl)ccc3n2)cc1 [Compound 92] | – | 1478 | 2.4 ± 1.1 | 2.4 ± 1.1 | 3550 ± 384 | 22.2 | 62.4 | 15.4 | 6.9 ± 1.3 | – |
| Clc1ccc2nc(/C=C/c3ccncc3)cc(NCCCCN3CCOCC3)c2c1 [Compound 93] | – | 561 | 9.9 ± 1.3 | 9.9 | 5670 | 14.4 | 96.2 | 5.62 | 20.8 | EC50 ([1]; Dd2 strain, read-out: EC50): 9.9 ± 1.3 nM |
| CN1CCN(CCCCNc2cc(/C=C/c3ccncc3)nc3ccc(Cl)cc23)CC1 [Compound 96] | 0.9 | 251 | 33.4 ± 5.4 | 33.4 ± 5.4 | 8380 ± 2580 | – | – | – | 36.1 ± 11.3 | – |
| FC(F)(F)c1ccc(/C=C/c2cc(NCCCCN3CCOCC3)c3cc(Cl)ccc3n2)cc1 [Compound 98] | – | 332 | 30.7 ± 5.2 | 30.7 ± 5.2 | 10200 ± 2390 | 64.9 | 21.4 | 52.7 | 73.8 ± 9.7 | – |
| Fc1ccc(/C=C/c2cc(NCCCCN3CCOCC3)c3cc(Cl)ccc3n2)cc1F [Compound 105] | – | 241 | 25.5 ± 6.1 | 25.5 | – | – | – | – | 27.6 | Clint ([5]; mouse liver microsomes): 53.7 µL/min/mg; Projected t1/2 ([5]; mouse liver microsomes (MLM)): 25.8 min; % remaining after 60 min [5, 12]: 19.9%; IC50 (HepG2; [13]): 6140 nM |
| Clc1ccc2nc(-c3ccncc3)cc(NCCCCN3CCOCC3)c2c1 [Compound 120] | – | – | 796 ± 161 | – | – | – | – | – | – | – |
| C[C@H]1[C@@H](O)O[C@@H]2O[C@@]3(C)CC[C@H]4[C@H](C)CC[C@@H]1[C@@]24OO3 [DHA, dihydroartemisinin, reference compound] | – | – | – | – | – | – | – | – | – | IC50 ([7]; Plasmodium falciparum, 3D7): 37.4 ± 8.9 nM; IC50 [8, 15]: 17.4 ± 3.7 nM |
| CN(C)c1ccc2nc3ccc(=[N+](C)C)cc-3sc2c1 [Methylene blue, reference compound] | – | – | – | – | – | – | – | – | – | IC50 ([7]; Plasmodium falciparum, 3D7): 107 ± 46.3 nM; IC50 [8, 15]: 74.7 ± 21.9 nM |
